Reference: patent US20190024193A1, “Sesquiterpene Biosensors and Uses Thereof” (priority 2017, published 2019)

Columns and labels:
PB2 bisabolol biosensor = PB2 bisabolol biosensor reporter fluorescence (Gemini reporter, GFP portion) in E. coli EPI300 host cells; assay type: cell-based, E. coli EPI300 (PB2 insert originating from Pseudomonas); conditions: E. coli EPI300 with PB2, high (0.01% arabinose) or low copy number
Procedure: (§1) A metagenomic library made from environmental samples obtained from hots springs, permafrost, sea water, soil, and hydrocarbon resource samples (from soil) was made using the Meta-G-Nome™ DNA Isolation Kit and CopyControl™ Fosmid Library Production Kit obtained from Epicentre. 300-400 fosmid clones from this library were obtained and mixed with a Tn5 transposase and sufficient biosensor construct (FIG. 1) was added to give about 10 biosensor inserts per fosmid. The transposase randomly integrated the biosensor construct into the fosmid vector, and the modified fosmid library with biosensor constructs was transformed into E. coli strain EPI300™ (commercially sold by Epicentre). The E. coli EPI300™ transformed with the modified fosmid library was plated on LB media with 20 μg/ml spectinomycin and 0.01% arabinose.
(§2) These functional biosensors were interrogated with (−)-α-bisabolol and clones that produced reporter fluorescence above control in response to the (−)-α-bisabolol were selected. Two bisabolol positive clones were selected and designated PB2 and PB3. PB2 was obtained from a fosmid with an insert originating from Pseudomonas, and PB3 was obtained from a fosmid with an insert originating from Bradyrhizobium.
(§3) As described above, the copy number of the fosmids with the PB2 biosensor and the PB3 biosensor can by increased in E. coli EPI300™ host cells that are treated with arabinose to induce an increase in copy number of the fosmid. E. coli EPI300™ with the PB2 or PB3 biosensors were treated (high copy number) or not treated (low copy number) with arabinose and then screened for reporter activity (Gemini reporter fluorescence from the GFP portion).
(§4) E. coli EPI300™ with fosmids containing PB2 or PB3 were grown without arabinose (low copy number) and in the presence of spectinomycin (200 μg/ml for PB2 and 500 μg/ml for PB3). The host cells were treated with different concentrations of (−)-α-bisabolol (0.0, 0.1, 0.25, 0.4, 0.5, 1.0 and 1.5 mM). FIGS. 6 and 7 show the fluorescence results for PB2 and PB3. Both biosensors show a dose response between 0.05 and 1.0 mM (−)-α-bisabolol.
(§5) E. coli EPI300™ with fosmids containing PB2 or PB3 were grown with 0.01% arabinose for high copy number of the biosensor, or grown in the absence of arabinose for low copy number of the biosensor, and then treated with a sesquiterpene: (−)-α-bisabolol, squalene, nerolidol, cintonellal, carvone, farnesene, or cineole. PB2 was also tested against linalool and PB3 was tested against ursolic acid.

PB3 bisabolol biosensor = PB3 bisabolol biosensor reporter fluorescence (Gemini reporter, GFP portion) in E. coli EPI300 host cells; assay type: cell-based, E. coli EPI300 (PB3 insert originating from Bradyrhizobium); conditions: for response of PB3 biosensor to stimulation with the compound: E. coli EPI300 with PB3, high (0.01% arabinose) or low copy number
Procedure: as §1, §2, §3, §4, §5

Row | Molecule | response of PB2 biosensor to stimulation with the compound (PB2 bisabolol biosensor) | response of PB3 biosensor to stimulation with the compound (PB3 bisabolol biosensor) | response of PB3 biosensor relative to (−)-α-bisabolol (PB3 bisabolol biosensor; E. coli EPI300 with PB3, 1 mM nerolidol)
1 | CC(C)=CCC/C(C)=C/CC/C(C)=C/CC/C=C(\C)CC/C=C(\C)CCC=C(C)C [squalene] | did not respond above background | did not respond above background | 
2 | C[C@H]1[C@H](C)CC[C@]2(C(=O)O)CC[C@]3(C)C(=CC[C@@H]4[C@@]5(C)CC[C@H](O)C(C)(C)[C@@H]5CC[C@]43C)[C@H]12 [ursolic acid] |  | did not respond above background | 
3 | C=C(C)C1CC=C(C)C(=O)C1 (stereo not drawn) [carvone] | did not respond above background | did not respond above background | 
4 | C=CC(C)(O)CCC=C(C)C (stereo not drawn) [linalool] | did not respond above background |  | 
5 | C=CC(C)(O)CCC=C(C)CCC=C(C)C (stereo not drawn) [nerolidol] | did not respond above background |  | comparable activity to PB3 treated with 0.2 mM (−)-α-bisabolol
6 | CC(C)=CCC[C@@H](C)CC=O [cintonellal] | did not respond above background | did not respond above background | 
7 | CC(C)=CCC[C@](C)(O)[C@@H]1CC=C(C)CC1 [(−)-α-bisabolol] | high specificity for induction |  | 
8 | CC12CCC(CC1)C(C)(C)O2 [cineole] | did not respond above background | did not respond above background | 
9 | farnesene | did not respond above background | did not respond above background | 
